Data reported in paper PMC9636582 (The Journal of Biological Chemistry, 2022).

Experiments:
[1] = target: T1, GAL4-PPARδ LBD (Homo sapiens, UniProt Q03181); assay: GAL4-PPARδ LBD luciferase reporter assay in HEK293 cells; assay type: cell-based; conditions: for PPARδ activation (in words): 100 μM fatty acids, Fig. 1B
T1 construct: chimeric receptors containing the LBD of various NRs; expressed in transfected cells; host or cells: HEK293
T1 sequence (Q03181 211-439 limits assumed): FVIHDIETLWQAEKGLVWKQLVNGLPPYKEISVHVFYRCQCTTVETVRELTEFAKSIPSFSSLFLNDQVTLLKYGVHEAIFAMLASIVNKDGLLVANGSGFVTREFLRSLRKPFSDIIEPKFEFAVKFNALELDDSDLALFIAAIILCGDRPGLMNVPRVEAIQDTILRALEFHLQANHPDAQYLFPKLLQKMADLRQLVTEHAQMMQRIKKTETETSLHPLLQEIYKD

[2] = target: T2, GAL4-PPARα LBD (Homo sapiens, UniProt Q07869); assay: GAL4-PPARα LBD luciferase reporter assay in HEK293 cells; assay type: cell-based; conditions: for ligand-induced activation of PPARα (in words): 100 μM fatty acids, Fig. 1B
T2 construct: chimeric receptors containing the LBD of various NRs; expressed in transfected cells; host or cells: HEK293
T2 sequence (Q07869 239-466 limits assumed): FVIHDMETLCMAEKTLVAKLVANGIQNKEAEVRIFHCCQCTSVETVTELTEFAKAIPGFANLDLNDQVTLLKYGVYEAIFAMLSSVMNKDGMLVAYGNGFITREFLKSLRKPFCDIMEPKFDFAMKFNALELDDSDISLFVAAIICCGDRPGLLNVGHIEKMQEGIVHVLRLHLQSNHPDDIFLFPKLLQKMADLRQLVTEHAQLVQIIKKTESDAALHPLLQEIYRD

[3] = system: human intestinal organoids; assay: PPARδ target gene mRNA expression in human intestinal organoids (RT-qPCR); assay type: cell-based; conditions: 1 μM GW1516 or 30 μM fatty acids for 24 h
[4] = target: T3, full-length PPARδ (Homo sapiens, UniProt Q03181); assay: full-length PPARδ PPRE luciferase reporter assay in HEK293 cells; assay type: cell-based; conditions: Fig. 1C
T3 construct: expressed in transfected cells; host or cells: HEK293
T3 sequence (Q03181 1-441): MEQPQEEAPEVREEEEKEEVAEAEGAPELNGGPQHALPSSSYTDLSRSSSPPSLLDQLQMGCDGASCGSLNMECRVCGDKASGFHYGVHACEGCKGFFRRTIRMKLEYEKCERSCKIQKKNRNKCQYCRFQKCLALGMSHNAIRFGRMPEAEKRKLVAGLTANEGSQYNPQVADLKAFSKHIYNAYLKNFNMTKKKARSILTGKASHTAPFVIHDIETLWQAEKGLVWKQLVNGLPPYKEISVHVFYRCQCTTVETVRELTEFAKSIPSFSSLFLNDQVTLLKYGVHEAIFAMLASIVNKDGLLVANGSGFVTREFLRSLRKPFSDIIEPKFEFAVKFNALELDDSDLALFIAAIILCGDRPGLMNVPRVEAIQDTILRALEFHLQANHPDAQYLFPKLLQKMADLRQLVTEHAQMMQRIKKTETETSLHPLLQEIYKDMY
Description: Luciferase activities were normalized to β-galactosidase activities.

[5] = target: T4, VP16-PPARδ / GAL4-SRC-1 (Homo sapiens, UniProt Q03181); assay: mammalian two-hybrid assay, VP16-PPARδ and coactivator GAL4-SRC-1; assay type: cell-based; conditions: 30 μM fatty acids, 100 nM GW1516, HEK293 cells, Fig. 3A
T4 construct: expressed in transfected cells; host or cells: HEK293
T4 sequence (Q03181 1-441): T3 sequence (Q03181 1-441)
T4 sequence (Q15788 595-771 partner limits assumed): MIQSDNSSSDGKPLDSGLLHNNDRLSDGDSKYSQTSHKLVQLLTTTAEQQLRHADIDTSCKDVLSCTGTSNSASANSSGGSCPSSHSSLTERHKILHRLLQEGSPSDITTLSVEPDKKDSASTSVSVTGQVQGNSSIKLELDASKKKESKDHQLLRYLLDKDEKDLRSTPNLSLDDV

[6] = target: T5, VP16-PPARα / GAL4-SRC-1 (Homo sapiens, UniProt Q07869); assay: mammalian two-hybrid assay, VP16-PPARα and coactivator GAL4-SRC-1; assay type: cell-based; conditions: 30 μM fatty acids, 1 μM GW7647, HEK293 cells, Fig. 3B
T5 construct: expressed in transfected cells; host or cells: HEK293
T5 sequence (Q07869 1-468): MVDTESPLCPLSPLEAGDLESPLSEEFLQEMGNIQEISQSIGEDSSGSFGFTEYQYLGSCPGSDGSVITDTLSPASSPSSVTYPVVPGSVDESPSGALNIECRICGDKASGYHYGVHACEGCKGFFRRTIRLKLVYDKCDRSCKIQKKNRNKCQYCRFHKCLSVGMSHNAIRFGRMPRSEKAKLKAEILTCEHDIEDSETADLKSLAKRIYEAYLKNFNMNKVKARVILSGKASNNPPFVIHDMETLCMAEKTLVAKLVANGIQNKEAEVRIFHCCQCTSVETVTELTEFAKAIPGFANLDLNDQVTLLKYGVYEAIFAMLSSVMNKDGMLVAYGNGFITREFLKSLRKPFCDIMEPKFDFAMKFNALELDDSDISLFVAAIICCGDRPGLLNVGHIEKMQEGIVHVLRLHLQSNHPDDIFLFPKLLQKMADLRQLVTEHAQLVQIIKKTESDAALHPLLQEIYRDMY
T5 sequence (Q15788 595-771 partner limits assumed): T4 sequence (Q15788 595-771 partner limits assumed)

[7] = target: T6, VP16-PPARδ / GAL4-NCoR (Homo sapiens, UniProt Q03181); assay: mammalian two-hybrid assay, VP16-PPARδ and corepressor NCoR; assay type: cell-based; conditions: 30 μM fatty acids, HEK293 cells, Fig. 3C
T6 construct: expressed in transfected cells; host or cells: HEK293
T6 sequence (Q03181 1-441): T3 sequence (Q03181 1-441)

[8] = target: T7, VP16-PPARα / GAL4-NCoR (Homo sapiens, UniProt Q07869); assay: mammalian two-hybrid assay, VP16-PPARα and corepressor NCoR; assay type: cell-based; conditions: 30 μM fatty acids, HEK293 cells, Fig. 3D
T7 construct: expressed in transfected cells; host or cells: HEK293
T7 sequence (Q07869 1-468): T5 sequence (Q07869 1-468)

[9] = target: T8, recombinant human PPARδ LBD protein (Homo sapiens, UniProt Q03181); assay: [14C] DHA competitive ligand-binding assay; conditions: 100 nM [14C] DHA, 1 μM nonlabeled fatty acids, overnight at 4 °C
T8 construct: Human PPARδ LBD (140–442) construct was cloned into a pGEX-4T1 vector; GST (N, cleaved yes); made in house; host or cells: Escherichia coli BL21 (DE3) pLys
T8 sequence (Q03181 140-441 limits assumed): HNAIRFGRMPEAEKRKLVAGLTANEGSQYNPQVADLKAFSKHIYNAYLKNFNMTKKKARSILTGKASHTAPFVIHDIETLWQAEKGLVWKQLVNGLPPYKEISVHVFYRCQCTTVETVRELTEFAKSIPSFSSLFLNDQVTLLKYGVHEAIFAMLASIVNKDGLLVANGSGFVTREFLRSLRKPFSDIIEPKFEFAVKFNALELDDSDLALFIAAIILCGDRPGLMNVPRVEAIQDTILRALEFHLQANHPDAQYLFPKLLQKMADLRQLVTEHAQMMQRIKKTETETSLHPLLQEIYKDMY
Method: To identify the mechanism underlying the activation of PPARδ by GLA-derived fatty acids, we performed a [^14C] DHA competitive ligand-binding assay describing the displacement of ligands from receptors with recombinant human PPARδ LBD protein produced by a bacterial expression system (Figs. 4, A and B and S2). PPARδ LBD or glutathione-S-transferase (GST) recombinant protein was incubated with both [^14C] […] A competitive inhibition of [^14C] DHA binding was analyzed as a direct binding to PPARδ LBD (see Experimental procedures). […] DHA binding to PPARδ LBD competitively (Fig. 4C).
Human PPARδ LBD (140–442) construct was cloned into a pGEX-4T1 vector (GE Healthcare Life Sciences) at the restriction enzyme site of SmaI and XhoI. The protein was expressed in Eschericia coli BL21 (DE3) pLys cells (Novagen) as a C-terminal fusion to a GST tag with a thrombin cleavage site. A single colony was cultured in 2 ml of LB media supplemented with 20 μg/ml of ampicillin and 30 μg/ml of chloramphenicol at 37 °C and 200 rpm for 18 h. The preculture was then transferred to 1 l of LB media until the A600 reached 0.6 to 0.8. IPTG was added to produce a final concentration of 0.4 mM, and expression was continued at 24 °C and 150 rpm for 18 h. Cells were collected using centrifugation, and pellets were resuspended in lysis buffer comprising 50 mM Tris–HCl (pH 7.5), 150 mM NaCl, 5 mM DTT, 1 mM EDTA, and 10% glycerol before sonication was performed. The supernatant was then collected using centrifugation at 100,000g and 4 °C for 70 min, after which it was loaded onto GST Accept (nacalai tesque) and equilibrated using the lysis buffer. Subsequently, the column was washed using five column volumes of the lysis buffer and thrombin cleavage buffer comprising 20 mM Tri–HCl (pH 8.4), 150 mM NaCl, 2.5 mM CaCl2, and 1 mM DTT, respectively. The GST tag was removed via digestion using biotinylated thrombin (Merck) for 18 h at 4 °C. The biotinylated thrombin was removed using Dynabeads M-280 streptavidin (Veritas). The purity of the target proteins was verified using SDS-PAGE.
A ligand-binding assay was performed as described previously with minor modifications ([72]). Briefly, purified recombinant human PPARδ LBD protein was incubated with 100 nM ([…]) [^14C] DHA in GP buffer (137 mM NaCl, 8.1 mM Na2HPO4, 2.68 mM KCl, 1.47 mM KH2PO4, 1% sodium azide, and 0.1% gelatin) overnight at 4 °C with or without various competitors (1 μM), including DHA and GLA-derived fatty acids. Unbound ligands were removed by adsorption to 3% dextran-coated charcoal, and the supernatant was collected. The PPARδ-bound [^14C] DHA was measured using a scintillation counter (PerkinElmer).

PPARδ activation (in words) [1]	ligand-induced activation of PPARα (in words) [2]	SMILES	further results
effective	little or no effect	CC/C=C\CC(O)CC/C=C\CCCCCCCC(=O)O (centres unmarked) [αHYD]	
	little or no effect	CC/C=C\CC(O)CCC(O)CCCCCCCCC(=O)O (centres unmarked) [αHYE]	
	little or no effect	CC/C=C\CC(=O)CC/C=C\CCCCCCCC(=O)O [αKetoD]	

More lines, now with the values behind:

SMILES	PPARδ activation (in words) [1]	ligand-induced activation of PPARα (in words) [2]	further results
CC/C=C\C/C=C\C/C=C\C/C=C\C/C=C\C/C=C\CCC(=O)O [DHA, docosahexaenoic acid, reference compound]			EC50 ([1]; GAL4-PPARδ LBD, calculated from luciferase activity with Quest Graph EC50 Calculator): 44.6 µM; EC50 ([2]; GAL4-PPARα LBD, calculated from luciferase activity with Quest Graph EC50 Calculator): 9.32 µM
Cc1cc(SCc2sc(-c3ccc(C(F)(F)F)cc3)nc2C)ccc1OCC(=O)O [GW1516, reference compound]			expression of PPARδ target genes (CPT1A, HMGCS2, PDK4, ACSL1) [3]: upregulated the mRNA expression of target genes
CCCCCC(O)CC/C=C\CCCCCCCC(=O)O (centres unmarked) [HYD]	effective	little or no effect	
CCCCCC(O)CCC(O)CCCCCCCCC(=O)O (centres unmarked) [HYE]	effective	little or no effect	
CCCCCC(=O)CC/C=C\CCCCCCCC(=O)O [KetoD]	effective	little or no effect	
CCCCCC(O)CCC(O)CC/C=C\CCCCC(=O)O (stereo not drawn) [γHYE, 10,13-dihydroxy-cis-6-octadecenoic acid]	more robust PPARδ activation than their original compound, GLA		transactivation of full-length PPARδ (in words) [4]: activated PPARδ potently; recruitment of coactivator SRC-1 to PPARδ [5]: induced coactivator-recruitment; recruitment of coactivator SRC-1 to PPARα [6]: induced coactivator-recruitment; interaction between PPARδ and corepressor NCoR [7]: reduced the interaction; interaction between PPARα and corepressor NCoR [8]: reduced the interaction; competitive displacement of [14C] DHA binding to PPARδ LBD [9]: displaced [^14C] DHA binding to PPARδ LBD competitively
